From ChEMBL document CHEMBL3885881, “DrugMatrix”

Organism: Rattus norvegicus
Assay: DrugMatrix - Regimen: Daily Repeat
Format: toxicity, organism-based, Sprague-Dawley
Design: regimen Daily Repeat, gender Male, age 6-8 weeks
Details: in vivo, po, route oral GAVAGE, vehicle 100 % WATER; for ABSOLUTE BASOPHIL / ABSOLUTE EOSINOPHIL / ABSOLUTE LYMPHOCYTE / ABSOLUTE MONOCYTE / ABSOLUTE SEGMENTED NEUTROPHIL / BASOPHIL / EOSINOPHIL / ERYTHROCYTE COUNT / HEMATOCRIT / HEMOGLOBIN / LEUKOCYTE COUNT / LYMPHOCYTE / MEAN CORPUSCULAR HEMOGLOBIN / MEAN CORPUSCULAR HEMOGLOBIN CONCENTRATION / MEAN CORPUSCULAR VOLUME / MONOCYTE / NEUTROPHIL / NUCLEATED RED BLOOD CELLS / PLATELET COUNT: tissue Blood; for ALANINE AMINOTRANSFERASE / ALBUMIN / ALKALINE PHOSPHATASE / ASPARTATE AMINOTRANSFERASE / BLOOD UREA NITROGEN / CARBON DIOXIDE / CHLORIDE / CHOLESTEROL / CREATINE PHOSPHOKINASE / CREATININE / GLUCOSE / LACTATE DEHYDROGENASE / LIPASE / PHOSPHORUS / POTASSIUM / SODIUM / TOTAL BILIRUBIN / TOTAL PROTEIN / URIC ACID: tissue Plasma
[1] = 60 mg/kg, 72 h, dose level Low, time 3 day
[2] = 60 mg/kg, 120 h, dose level Low, time 5 day
[3] = 600 mg/kg, 72 h, dose level High, time 3 day
[4] = 600 mg/kg, 120 h, dose level High, time 5 day

`C=C(Cl)Cl` [1,1-DICHLOROETHENE] was tested, and the “ABSOLUTE BASOPHIL” value [1] was 0 CELLS/uL, the “ABSOLUTE EOSINOPHIL” value [1] was 51.33 CELLS/uL and the “ABSOLUTE LYMPHOCYTE” value [1] was 13010.33 CELLS/uL. For the same molecule, the “ABSOLUTE MONOCYTE” value [1] was 288.67 CELLS/uL, the “ABSOLUTE SEGMENTED NEUTROPHIL” value [1] was 1149.67 CELLS/uL and the BASOPHIL [1] was 0%. The EOSINOPHIL [1] was 0.33%, the “ERYTHROCYTE COUNT” value [1] was 5.5 x10E6/uL and the HEMATOCRIT [1] was 34%. For the same molecule, the HEMOGLOBIN [1] was 13.53 G/DL, the “LEUKOCYTE COUNT” value [1] was 14.5 x10E3/uL and the LYMPHOCYTE [1] was 89.67%. For the same molecule, the “MEAN CORPUSCULAR HEMOGLOBIN” value [1] was 24.63 pg, the “MEAN CORPUSCULAR HEMOGLOBIN CONCENTRATION” value [1] was 39.83 G/DL and the “MEAN CORPUSCULAR VOLUME” value [1] was 61.83 fL. The MONOCYTE [1] was 2%, the NEUTROPHIL [1] was 8% and the “NUCLEATED RED BLOOD CELLS” value [1] was 0.33 /100WBC. The “PLATELET COUNT” value [1] was 1358.33 x10E3/uL, the “ALANINE AMINOTRANSFERASE” value [1] was 52 u/L and the ALBUMIN [1] was 4.13 G/DL. The “ALKALINE PHOSPHATASE” value [1] was 441.67 u/L, the “ASPARTATE AMINOTRANSFERASE” value [1] was 84.67 u/L and the “BLOOD UREA NITROGEN” value [1] was 15 mg/dL. The “CARBON DIOXIDE” value [1] was 24.33 mmol/L, the CHLORIDE [1] was 102 MEQ/L and the CHOLESTEROL [1] was 73.33 mg/dL. For the same molecule, the “CREATINE PHOSPHOKINASE” value [1] was 314 u/L, the CREATININE [1] was 0.14 mg/dL and the GLUCOSE [1] was 162 mg/dL. For the same molecule, the “LACTATE DEHYDROGENASE” value [1] was 291.33 u/L, the LIPASE [1] was 9 u/L and the PHOSPHORUS [1] was 13 mg/dL. For the same molecule, the POTASSIUM [1] was 6.27 MEQ/L, the SODIUM [1] was 144.17 MEQ/L and the “TOTAL BILIRUBIN” value [1] was 0.13 mg/dL. The “TOTAL PROTEIN” value [1] was 5.77 G/DL, the “URIC ACID” value [1] was 1.43 mg/dL and the “ABSOLUTE BASOPHIL” value [2] was 0 CELLS/uL. For the same molecule, the “ABSOLUTE EOSINOPHIL” value [2] was 128.33 CELLS/uL, the “ABSOLUTE LYMPHOCYTE” value [2] was 16922 CELLS/uL and the “ABSOLUTE MONOCYTE” value [2] was 76.33 CELLS/uL. The “ABSOLUTE SEGMENTED NEUTROPHIL” value [2] was 1473.33 CELLS/uL, the BASOPHIL [2] was 0% and the EOSINOPHIL [2] was 0.67%. The “ERYTHROCYTE COUNT” value [2] was 5.28 x10E6/uL, the HEMATOCRIT [2] was 33.8% and the HEMOGLOBIN [2] was 13.87 G/DL. The “LEUKOCYTE COUNT” value [2] was 18.6 x10E3/uL, the LYMPHOCYTE [2] was 91.33% and the “MEAN CORPUSCULAR HEMOGLOBIN” value [2] was 26.23 pg. The “MEAN CORPUSCULAR HEMOGLOBIN CONCENTRATION” value [2] was 41.07 G/DL, the “MEAN CORPUSCULAR VOLUME” value [2] was 63.9 fL and the MONOCYTE [2] was 0.33%. For the same molecule, the NEUTROPHIL [2] was 7.67%, the “NUCLEATED RED BLOOD CELLS” value [2] was 0 /100WBC and the “PLATELET COUNT” value [2] was 1031 x10E3/uL. For the same molecule, the “ALANINE AMINOTRANSFERASE” value [2] was 56.67 u/L, the ALBUMIN [2] was 4.23 G/DL and the “ALKALINE PHOSPHATASE” value [2] was 282 u/L. The “ASPARTATE AMINOTRANSFERASE” value [2] was 78 u/L, the “BLOOD UREA NITROGEN” value [2] was 16.67 mg/dL and the “CARBON DIOXIDE” value [2] was 23.67 mmol/L. For the same molecule, the CHLORIDE [2] was 103.67 MEQ/L, the CHOLESTEROL [2] was 71.67 mg/dL and the “CREATINE PHOSPHOKINASE” value [2] was 168.67 u/L. The CREATININE [2] was 0.22 mg/dL, the GLUCOSE [2] was 147.33 mg/dL and the “LACTATE DEHYDROGENASE” value [2] was 101.67 u/L. It also gave an LIPASE [2] of 9.33 u/L, a PHOSPHORUS [2] of 13.27 mg/dL and a POTASSIUM [2] of 6.62 MEQ/L. For the same molecule, the SODIUM [2] was 147.33 MEQ/L, the “TOTAL BILIRUBIN” value [2] was 0.2 mg/dL and the “TOTAL PROTEIN” value [2] was 5.9 G/DL. For the same molecule, the “URIC ACID” value [2] was 1.67 mg/dL, the “ABSOLUTE BASOPHIL” value [3] was 0 CELLS/uL and the “ABSOLUTE EOSINOPHIL” value [3] was 0 CELLS/uL. For the same molecule, the “ABSOLUTE LYMPHOCYTE” value [3] was 19725 CELLS/uL, the “ABSOLUTE MONOCYTE” value [3] was 397.33 CELLS/uL and the “ABSOLUTE SEGMENTED NEUTROPHIL” value [3] was 2311 CELLS/uL. For the same molecule, the BASOPHIL [3] was 0%, the EOSINOPHIL [3] was 0% and the “ERYTHROCYTE COUNT” value [3] was 5.83 x10E6/uL. For the same molecule, the HEMATOCRIT [3] was 37.37%, the HEMOGLOBIN [3] was 15.3 G/DL and the “LEUKOCYTE COUNT” value [3] was 22.43 x10E3/uL. The LYMPHOCYTE [3] was 88.33%, the “MEAN CORPUSCULAR HEMOGLOBIN” value [3] was 26.2 pg and the “MEAN CORPUSCULAR HEMOGLOBIN CONCENTRATION” value [3] was 40.93 G/DL. For the same molecule, the “MEAN CORPUSCULAR VOLUME” value [3] was 64 fL, the MONOCYTE [3] was 2% and the NEUTROPHIL [3] was 9.67%. The “NUCLEATED RED BLOOD CELLS” value [3] was 0.33 /100WBC, the “PLATELET COUNT” value [3] was 1189.67 x10E3/uL and the “ALANINE AMINOTRANSFERASE” value [3] was 61.33 u/L. For the same molecule, the ALBUMIN [3] was 4.23 G/DL, the “ALKALINE PHOSPHATASE” value [3] was 458.33 u/L and the “ASPARTATE AMINOTRANSFERASE” value [3] was 80 u/L. The “BLOOD UREA NITROGEN” value [3] was 11.33 mg/dL, the “CARBON DIOXIDE” value [3] was 26 mmol/L and the CHLORIDE [3] was 103.67 MEQ/L. The CHOLESTEROL [3] was 79.67 mg/dL, the “CREATINE PHOSPHOKINASE” value [3] was 213.67 u/L and the CREATININE [3] was 0.17 mg/dL. The GLUCOSE [3] was 159 mg/dL, the “LACTATE DEHYDROGENASE” value [3] was 74.33 u/L and the LIPASE [3] was 9.67 u/L. The PHOSPHORUS [3] was 12.7 mg/dL, the POTASSIUM [3] was 6.59 MEQ/L and the SODIUM [3] was 144.9 MEQ/L. For the same molecule, the “TOTAL BILIRUBIN” value [3] was 0.2 mg/dL, the “TOTAL PROTEIN” value [3] was 5.83 G/DL and the “URIC ACID” value [3] was 1.9 mg/dL. For the same molecule, the “ABSOLUTE BASOPHIL” value [4] was 0 CELLS/uL, the “ABSOLUTE EOSINOPHIL” value [4] was 0 CELLS/uL and the “ABSOLUTE LYMPHOCYTE” value [4] was 18262.67 CELLS/uL. For the same molecule, the “ABSOLUTE MONOCYTE” value [4] was 288.67 CELLS/uL, the “ABSOLUTE SEGMENTED NEUTROPHIL” value [4] was 2115.33 CELLS/uL and the BASOPHIL [4] was 0%. The EOSINOPHIL [4] was 0%, the “ERYTHROCYTE COUNT” value [4] was 5.83 x10E6/uL and the HEMATOCRIT [4] was 36.67%. The HEMOGLOBIN [4] was 14.73 G/DL, the “LEUKOCYTE COUNT” value [4] was 20.67 x10E3/uL and the LYMPHOCYTE [4] was 89%. The “MEAN CORPUSCULAR HEMOGLOBIN” value [4] was 25.23 pg, the “MEAN CORPUSCULAR HEMOGLOBIN CONCENTRATION” value [4] was 40.2 G/DL and the “MEAN CORPUSCULAR VOLUME” value [4] was 62.87 fL. For the same molecule, the MONOCYTE [4] was 1.33%, the NEUTROPHIL [4] was 9.67% and the “NUCLEATED RED BLOOD CELLS” value [4] was 0.33 /100WBC. For the same molecule, the “PLATELET COUNT” value [4] was 1233.33 x10E3/uL, the “ALANINE AMINOTRANSFERASE” value [4] was 48 u/L and the ALBUMIN [4] was 4.23 G/DL. For the same molecule, the “ALKALINE PHOSPHATASE” value [4] was 376.33 u/L, the “ASPARTATE AMINOTRANSFERASE” value [4] was 81 u/L and the “BLOOD UREA NITROGEN” value [4] was 14.67 mg/dL. The “CARBON DIOXIDE” value [4] was 23.33 mmol/L, the CHLORIDE [4] was 102 MEQ/L and the CHOLESTEROL [4] was 75 mg/dL. The “CREATINE PHOSPHOKINASE” value [4] was 337.67 u/L, the CREATININE [4] was 0.21 mg/dL and the GLUCOSE [4] was 150.33 mg/dL. The “LACTATE DEHYDROGENASE” value [4] was 117.33 u/L, the LIPASE [4] was 10 u/L and the PHOSPHORUS [4] was 12.33 mg/dL. For the same molecule, the POTASSIUM [4] was 7.1 MEQ/L, the SODIUM [4] was 144.9 MEQ/L and the “TOTAL BILIRUBIN” value [4] was 0.2 mg/dL. For the same molecule, the “TOTAL PROTEIN” value [4] was 6.1 G/DL and the “URIC ACID” value [4] was 1.77 mg/dL.
